Consider 16 compounds from patent US7589219B2, “2,5-bis-diamine-[1,4]benzoquinonic derivatives, useful for the treatment of alzheimer's disease, method for preparing them and intermediates of said method” (priority 2002, dated 2009).

Entries after “also recorded” stand apart in the source; their conditions may differ. Read-outs that look alike come from different tables or passages of the source.

Assay [1] relates to anti-NGF transgenic mice (AD11). Briefly: Immunohistochemistry and neurostereology in anti-NGF transgenic mice (AD11). The format is in vivo, mouse. Conditions: for extracellular deposition of APP: 6 month-old AD11 mice (FIG. 19); for cholinergic deficit in the basal forebrain (number of cholinergic neurons): AD11 mice from 6 months of age for 15 days (FIG. 16); for number of cells accumulating β-amyloid protein in the hippocampus: treatment starting at 6 months of age (FIG. 20).

The target in assay [2] is AChE (from human erythrocytes, amphiphilic form, EC 3.1.1.7) (Homo sapiens, UniProt P22303). In words: biochemical. Conditions: for Selectivity IC50(BuChE)/IC50 (AChE): ratio of the Table I IC50 values.
In assay [3] the target is BuChE (from human serum, EC 3.1.1.8) (Homo sapiens, UniProt P06276). In words: biochemical.
The nature of assay [4]: Total antioxidant status (Randox kit, modified), capture of oxygen radicals, ABTS colorimetric method. The format is biochemical. Conditions: for % inhibition (antioxidant activity): absorbance 600 nm, 3 min, pH 7.4, 37° C.
The target of assay [5] is aggregation of Aβ (1-40) induced by AChE (recombining human, EC 3.1.1.7) (Homo sapiens, UniProt P22303). In words: biochemical. The format is biochemical.
In assay [6] the test system is AD11 mice. Briefly: Object recognition test in AD11 mice. The format is in vivo, mouse.
Assay [7] deals with AChE, from human erythrocytes EC 3.1.1.7 (Homo sapiens, UniProt P22303). The format is biochemical.
For assay [8], the system named is non transgenic mice treated with scopolamine. In words: Object recognition test, amnesia induced by scopolamine in non transgenic mice. The format is in vivo, mouse. Conditions: per os 15 mg/kg 20 min before scopolamine 0.5 mg/kg s.c. (FIG. 14).
Assay [9] deals with recombining human AChE (HuAChE, EC 3.1.1.7) (Homo sapiens, UniProt P22303). The format is biochemical. Conditions: mean of two independent measurements in triplicate.
[10] abbreviates: AD11 mice, 15 days starting at 6 months of age (FIG. 18).
The mark [11] stands for this setting: AChE from human erythrocytes, Ellman's method, Table I, read-out: IC50(AChE).
Setting [12] is: AD11 mice aged 15 months, per os 7 mg/kg/day for 1 month, versus placebo (FIG. 11).
The mark [13] stands for this setting: AD11 mice, daily from 1.5 months until 2 months of age, per os or intraperitoneal, comparison of AChE inhibitors (FIG. 15).
Where [14] appears, read: BuChE from human serum, Ellman's method, Table I, read-out: IC50 (BuChE).
[15] abbreviates: BuChE from human serum, Example 50 table, mean of two independent measurements in triplicate, read-out: IC50 (BuChE).

Sequence of AChE (from human erythrocytes, amphiphilic form, EC 3.1.1.7) (P22303 32-617 isoform P22303-2 limits assumed): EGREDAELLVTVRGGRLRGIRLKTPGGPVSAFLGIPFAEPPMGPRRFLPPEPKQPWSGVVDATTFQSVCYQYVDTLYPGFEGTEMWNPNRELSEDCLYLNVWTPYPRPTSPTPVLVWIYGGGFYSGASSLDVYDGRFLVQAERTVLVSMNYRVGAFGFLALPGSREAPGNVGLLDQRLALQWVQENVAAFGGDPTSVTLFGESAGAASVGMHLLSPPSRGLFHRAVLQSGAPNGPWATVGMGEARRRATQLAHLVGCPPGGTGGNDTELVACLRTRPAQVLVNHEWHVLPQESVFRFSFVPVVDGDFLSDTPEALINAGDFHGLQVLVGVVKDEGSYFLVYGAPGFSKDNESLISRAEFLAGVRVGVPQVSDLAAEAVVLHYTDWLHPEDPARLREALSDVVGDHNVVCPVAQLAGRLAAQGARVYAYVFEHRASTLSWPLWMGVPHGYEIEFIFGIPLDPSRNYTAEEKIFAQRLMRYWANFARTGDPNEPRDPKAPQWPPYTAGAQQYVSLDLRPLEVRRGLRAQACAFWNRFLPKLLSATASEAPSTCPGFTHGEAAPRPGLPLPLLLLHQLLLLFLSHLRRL
Sequence of BuChE (from human serum, EC 3.1.1.8) (P06276 29-602): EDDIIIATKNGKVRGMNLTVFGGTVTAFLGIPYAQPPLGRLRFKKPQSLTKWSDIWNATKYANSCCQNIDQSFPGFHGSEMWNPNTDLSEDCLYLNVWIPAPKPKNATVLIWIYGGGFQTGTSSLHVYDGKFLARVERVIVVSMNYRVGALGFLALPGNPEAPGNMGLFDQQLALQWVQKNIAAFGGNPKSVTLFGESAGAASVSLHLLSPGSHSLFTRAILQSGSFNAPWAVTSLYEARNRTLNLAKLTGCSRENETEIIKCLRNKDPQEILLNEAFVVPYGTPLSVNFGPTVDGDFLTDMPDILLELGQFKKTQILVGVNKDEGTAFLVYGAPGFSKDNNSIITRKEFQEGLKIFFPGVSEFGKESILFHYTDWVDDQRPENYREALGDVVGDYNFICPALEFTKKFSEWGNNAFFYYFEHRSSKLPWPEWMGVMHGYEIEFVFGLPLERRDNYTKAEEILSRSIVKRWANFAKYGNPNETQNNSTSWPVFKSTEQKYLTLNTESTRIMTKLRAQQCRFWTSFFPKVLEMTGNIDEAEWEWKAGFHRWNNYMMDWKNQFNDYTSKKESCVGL
Sequence of recombining human AChE (HuAChE, EC 3.1.1.7) (P22303 32-614): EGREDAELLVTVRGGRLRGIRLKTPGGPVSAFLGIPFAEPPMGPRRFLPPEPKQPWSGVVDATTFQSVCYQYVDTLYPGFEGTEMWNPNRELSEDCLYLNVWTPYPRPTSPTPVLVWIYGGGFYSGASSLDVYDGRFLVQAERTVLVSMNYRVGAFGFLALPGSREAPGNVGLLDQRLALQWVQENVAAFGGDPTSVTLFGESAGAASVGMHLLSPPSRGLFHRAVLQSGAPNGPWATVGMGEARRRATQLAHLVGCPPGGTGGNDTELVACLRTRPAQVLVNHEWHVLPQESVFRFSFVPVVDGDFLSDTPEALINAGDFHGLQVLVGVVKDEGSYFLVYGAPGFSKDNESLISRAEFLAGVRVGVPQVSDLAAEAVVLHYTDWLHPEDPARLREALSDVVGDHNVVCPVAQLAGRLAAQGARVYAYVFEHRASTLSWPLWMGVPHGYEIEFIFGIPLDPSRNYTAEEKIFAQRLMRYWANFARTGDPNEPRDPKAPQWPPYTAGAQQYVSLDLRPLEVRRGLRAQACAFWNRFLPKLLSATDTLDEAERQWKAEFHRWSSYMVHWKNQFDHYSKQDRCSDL
Sequence of AChE, from human erythrocytes EC 3.1.1.7 (P22303 32-617 isoform P22303-2 limits assumed): as the sequence (P22303 32-617 isoform P22303-2 limits assumed) above
Sequence of aggregation of Aβ (1-40) induced by AChE (recombining human, EC 3.1.1.7) (P22303 32-614): as the sequence (P22303 32-614) above

As to `COc1ccccc1CN(C)CCCCCC(=O)N(C)CCCCCCCCN(C)C(=O)CCCCCN(C)Cc1ccccc1OC` [Caproctamine, reference compound], in [1], the “extracellular deposition of APP” value is recorded as “ineffective” and the “cholinergic deficit in the basal forebrain (number of cholinergic neurons)” value is reported as “had no effect on the number of cholinergic neurons”. Also, the “number of neurons labelled with antibodies against phospho-tau (entorhinal cortex)” value in [1] (setting [10]) is reported as “ineffective”. For the same compound, the “number of cells accumulating β-amyloid protein in the hippocampus” value in assay [1] (AD11 mice) is “ineffective”.
Take `CCN(CCCCCCNC1=CC(=O)C(NCCCCCCN(CC)Cc2ccccc2OC)=CC1=O)Cc1ccccc1OC` [Compound XVI, 2,5-Bis-{6-[ethyl-(2-methoxy-benzyl)-amino]-hexylamino}-[1,4]benzoquinone]: the IC50 in assay [2] (setting [11]) is 2.39 ± 0.14 nM; in [3] (setting [14]), 1440 ± 100 nM; in assay [3] (setting [15]) it was 1440 ± 100 nM; in [3] (approximate, corresponds to the Table I IC50, read-out: pIC50(BChE) (converted)) it was about 1450 nM; in assay [5] (read-out: concentration able to reduce the signal of fluorescence by 50% (IC50, AChE-induced Aβ aggregation), Aβ 230 μM, AChE 2.3 μM, thioflavine T fluorescence) it was 28300 ± 300 nM; in assay [9], 1.55 ± 0.11 nM. Besides, the “Selectivity IC50(BuChE)/IC50 (AChE)” value in [2] worked out at 602. In assay [1], the “extracellular deposition of APP” value is “reduced the extracellular deposition of APP”. For the same compound, the “number of cholinergic neurons in the basal forebrain” value is given as “improvement in the number of cholinergic neurons” in assay [1] (AD11 mice aged 15 months, per os 7 mg/kg/day for 1 month (FIG. 9)) and “prevented the decrease of the number of cholinergic neurons” in assay [1] (setting [13]). Also, the “intracellular accumulation of hyperphosphorylated tau” value in assay [1] (AD11 mice aged 15 months, per os 7 mg/kg/day for 1 month, versus placebo (FIG. 10)) is recorded as “decreased”. Further, in assay [1] (setting [12]), the “number of cells associated with plaques” value is listed as “lower than that in placebo-treated mice”. In assay [1] (setting [12]), the “number of β-amyloid plaques” value is “decrease in the number of β-amyloid plaques”. Also, the “cholinergic deficit in the basal forebrain (number of cholinergic neurons)” value in assay [1] is recorded as “able to rescue the cholinergic deficit”. Further, in [1] (AD11 mice of 2 months, 7 mg/kg intraperitoneal daily for 15 days (FIG. 7)), the “APP deposition in the cerebral vessels” value is “able to reduce markedly the cerebrovascular deposition of APP”. Also, the “tau hyperphosphorylation in the cortex” value in [1] (AD11 mice of 2 months, 7 mg/kg intraperitoneal daily for 15 days (FIG. 8)) is listed as “partly prevented”. Moreover, the “cholinergic neurons in the basal nucleus of Meynert” value in assay [1] (AD11 mice, 7 mg/kg intraperitoneal daily for 15 days from age 1.5 to 2 months (FIG. 6)) was “efficacious in preventing the loss of cholinergic neurons”. Besides, the “ChAT positive cholinergic neurons in the basal forebrain” value in assay [1] (AD11 mice, 7 mg/kg intraperitoneal daily for 15 days from age 1.5 to 2 months (FIGS. 4, 5)) is “able to prevent the cholinergic deficit in the basal forebrain”. In addition, the “number of neurons labelled with antibodies against phospho-tau (entorhinal cortex)” value is “reduced the number of neurons labelled with antibodies against phospho-tau” in assay [1] (AD11 mice, 15 days starting at 1.5 months of age (FIG. 17)) and “reduced the number of neurons labelled with antibodies against phospho-tau” in assay [1] (setting [10]). Moreover, the “number of cells accumulating β-amyloid protein in the hippocampus” value in [1] (AD11 mice) is “able to reduce the number of cells accumulating β-amyloid protein”. Besides, the “% inhibition (antioxidant activity)” value in assay [4] (concentration 170 μM, with human serum albumin 25 μM) is given as 44.1 ± 3.7%. The “antioxidant power, times lower than Trolox” value in assay [4] (oxidated quinonic form tested) is listed as “about 6 times”. Further, the “behavioural deficit, object recognition test (discrimination index)” value is given as “improvement of the deficit; also recorded: marked amelioration of the behavioural deficit” in assay [6] (AD11 mice at 6 months, 15 mg/kg/day per os for 15 days (FIGS. 12, 21), 15 mg/kg/day) and “improvement of the deficit” in [6] (AD11 mice at 12 months, 15 mg/kg/day per os for 15 days (FIG. 13)). For the same compound, the type of inhibition entry in [7] (Lineweaver-Burk analysis (FIG. 1)) is given as “competitive inhibitor of a mixed type”. Besides, the inhibition constant (Ki) (in general, the equilibrium dissociation constant of an inhibitor or competing ligand from its target) in [7] (acetylthiocholine 111-550 μM, Lineweaver-Burk, intercept of the gradient plot) came out at 2.6 nM. Further, in [8], the “amnesia induced by scopolamine, object recognition test” value was “did not show any signs of amnesia”.
Consider `CCN(CCCCCCCNC1=CC(=O)C(NCCCCCCCN(CC)Cc2ccccc2OC)=CC1=O)Cc1ccccc1OC` [IL, 2,5-bis-{7-[ethyl-(2-methoxy-benzyl)-amino]-heptylamino}-[1,4]benzoquinone], for which the figures for the IC50 in [3] (setting [15]) and in assay [9] were 1250 ± 250 nM and 7.79 ± 0.37 nM, respectively.
On the same counts, the results for `COc1ccccc1CNCCCCCCNC1=CC(=O)C(NCCCCCCNCc2ccccc2OC)=CC1=O` [LI, 2,5-bis-[6-(2-methoxy-benzylamino)-hexylamino]-[1,4]-benzoquinone] are 3230 ± 150 nM and 123 ± 20 nM.
`COc1ccccc1CN(C)CCCCCCNC1=CC(=O)C(NCCCCCCN(C)Cc2ccccc2OC)=CC1=O` [LIV, 2,5-bis-{6-[(2-methoxy-benzyl)-methylamino]-hexylamino}-[1,4]-benzoquinone]: the IC50 in assay [3] (setting [15]) came to 5110 ± 410 nM; in assay [9] it was 77.8 ± 4.3 nM.
The like results for `CCN(CCCCCCNC1=C(C)C(=O)C(NCCCCCCN(CC)Cc2ccccc2OC)=C(C)C1=O)Cc1ccccc1OC` [LV, 2,5-bis-{6-[ethyl-(2-methoxy-benzyl)-amino]-hexylamino}-3,6-dimethyl-[1,4]-benzoquinone] were, in that order, 462 ± 2 nM and 9.5 ± 0.23 nM.
Regarding `Nc1c2c(nc3ccccc13)CCCC2` [Tacrine, reference compound], the “number of cholinergic neurons in the basal forebrain” value in [1] (setting [13]) was “aggravated the cholinergic deficit”.
In the case of `Cc1c(C)c2c(c(C)c1O)CCC(C)(C(=O)O)O2` (centres unmarked) [Trolox, 6-hydroxy-2,5,7,8-tetramethylchroman-2-carboxylic acid, reference compound], the “% inhibition (antioxidant activity)” value in [4] (concentration 27 μM) is recorded as 57.6 ± 0.9%.
Consider `CCN(CCCNC1=CC(=O)C(NCCCN(CC)Cc2ccccc2OC)=CC1=O)Cc1ccccc1OC` [XII, 2,5-Bis-{3-[ethyl-(2-methoxy-benzyl)-amino]-propylamino}-[1,4]benzoquinone], for which the IC50 in assay [2] (setting [11]) was 3.19 ± 0.15 nM; in assay [2] (approximate, corresponds to the Table I IC50, read-out: pIC50(AChE) (converted)) it was about 3.24 nM; in [3] (setting [14]), 4490 ± 340 nM; in assay [9], 2.25 ± 0.21 nM. Besides, in assay [2], the “Selectivity IC50(BuChE)/IC50 (AChE)” value is recorded as 1407. Besides, the inhibition (usually how much of the control response was suppressed) at 100 µM in assay [5] (concentration of 100 μM) is about 90%.
Take `CCN(CCCCCCNC1=CC(=O)C(NCCCCCCN(CC)Cc2ccco2)=CC1=O)Cc1ccco1` [XLI, 2,5-bis-[6-(ethyl-furan-2-ilmethyl-amino)-hexylamino]-[1,4]benzoquinone]: the IC50 in assay [3] (setting [15]) stood at 3510 ± 180 nM; in assay [9] it was 144 ± 3 nM.
The like results for `CCN(CCNC1=CC(=O)C(NCCN(CC)Cc2ccccc2OC)=CC1=O)Cc1ccccc1OC` [XLV, 2,5-bis-{2-[ethyl-(2-methoxy-benzyl)-amino]-ethylamino}-[1,4]benzoquinone] were, in that order, 16800 ± 1100 nM and 61.5 ± 1.3 nM.
Take `CCN(CCCCCCNC1=CC(=O)C(NCCCCCCN(CC)Cc2ccccc2)=CC1=O)Cc1ccccc1` [XVII, 2,5-Bis-[6-(benzyl-ethyl-amino)-hexylamino]-[1,4]benzoquinone]: the IC50 in [3] (setting [15]) was found to be 645 ± 33 nM; in assay [9], 73.3 ± 3.2 nM.
`CCN(CCCCCCNC1=CC(=O)C(NCCCCCCN(CC)Cc2ccccc2Cl)=CC1=O)Cc1ccccc1Cl` [XVIII, 2,5-Bis-{6-[ethyl-(2-chloro-benzyl)-amino]-hexylamino}-[1,4]benzoquinone]: the values for the IC50 in assay [3] (setting [15]) and in [9] were 45100 ± 1000 nM and 593 ± 51 nM, respectively.
Consider `CCN(CCCCCCNC1=CC(=O)C(NCCCCCCN(CC)Cc2ccccc2[N+](=O)[O-])=CC1=O)Cc1ccccc1[N+](=O)[O-]` [XXIX, 2,5-bis-{6-[ethyl-(2-nitro-benzyl)-amino]-hexylamino}-[1,4]benzoquinone], for which the values for the IC50 in assay [3] and in assay [9] were 36500 ± 8800 nM and 2310 ± 130 nM, respectively.
On to `CCN(CCCCCCNC1=CC(=O)C(NCCCCCCN(CC)Cc2cccc(OC)c2)=CC1=O)Cc1cccc(OC)c1` [XXXIII, 2,5-bis-{6-[ethyl-(3-methoxy-benzyl)-amino]-hexylamino}-[1,4]benzoquinone], for which the IC50 in assay [3] (setting [15]) worked out at 2170 ± 70 nM; in assay [9], 13.8 ± 1.7 nM.
On the same counts, the results for `CCN(CCCCCCNC1=CC(=O)C(NCCCCCCN(CC)Cc2ccc(OC)cc2)=CC1=O)Cc1ccc(OC)cc1` [XXXVII, 2,5-bis-{6-[ethyl-(4-methoxy-benzyl)-amino]-hexylamino}-[1,4]benzoquinone] are 2420 ± 940 nM and 51.1 ± 1 nM.
